Measurements from patent publication US20210330611A1, “THERAPY FOR NEUROLOGICAL DISEASES/DISORDERS” (priority 2020, published 2021).
Where a name gives a salt, the structure may show the parent alone. Read-outs that look alike come from different tables or passages of the source.

Legend:
[1] = test system: fibrin-induced microglia activation; experiment: Image-based assay of fibrin-induced microglia activation (HTS and dose response); assay type: cell-based, rat; conditions: for inhibition at 10 µM: Rattus norvegicus, Microglia, read-out: Fibrin % inhibition
primary rat microglia [2] = experiment: Cell toxicity (dead cells, size <150 μm2) in coated fibrin (cFib) assay;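 further: share of dead cells sized under 150 µm2 at 10 µM in fibrin-stimulated microglia HTS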
primary rat microglia [3] = experiment: Cell toxicity (dead cells, size <150 μm2) in LPS assay
[4] = test system: fibrin- and LPS-induced microglia activation; experiment: cells; assay type: cell-based, rat
[5] = test system: LPS-induced microglia activation; experiment: Image-based assay of LPS-induced microglia activation (HTS and dose response); assay type: cell-based, rat; conditions: for inhibition at 10 µM: Rattus norvegicus, Microglia, read-out: LPS % inhibition
[6] = primary microglia HTS, 10 μM, fibrin-stimulated, cell size >800 μm^2 as marker of activation
[7] = primary microglia HTS, 10 μM, fibrin assay, cell size <150 μm^2 as marker of toxicity
[8] = primary microglia HTS, 10 μM, LPS assay, cell size <150 μm^2 as marker of toxicity
[9] = HTS of 1907 compounds, quadrant by fibrin and LPS inhibition
[10] = primary microglia HTS, 10 μM, LPS-stimulated, cell size >800 μm^2 as marker of activation
[11] = primary microglia HTS, fibrin stimulation, increased cell size (>800 μm^2) as marker of activation
[12] = primary microglia HTS, fibrin stimulation, decreased size (<150 μm^2) as marker of toxicity
[13] = primary microglia HTS, LPS stimulation, decreased size (<150 μm^2) as marker of toxicity
[14] = quadrant by fibrin and LPS inhibition in HTS of 1907 compounds
[15] = 48 h, primary microglia HTS, LPS stimulation, increased cell size (>800 μm^2) as marker of activation
[16] = primary HTS, 10 μM, fibrin-stimulated primary microglia
[17] = primary HTS, 10 μM, fibrin assay, dead cells size <150 μm2
[18] = primary HTS, 10 μM, LPS assay, dead cells size <150 μm2
[19] = primary HTS, 10 μM, LPS-stimulated primary microglia

| SMILES | inhibition at 10 µM [1, 11] | Fibrin % cell toxicity (primary rat microglia [2]; [12]) | LPS % cell toxicity (primary rat microglia [3]; [13]) | Quadrant (FIG. 5b) [4, 14] | inhibition at 10 µM [5, 15] | further results |
| --- | --- | --- | --- | --- | --- | --- |
| COc1ccc(CN2CCNCC2)c(OC)c1OC [Trimetazidine] |  |  |  |  |  | inhibition at 10 µM [1, 6]: -18%; Fibrin % cell toxicity (primary rat microglia [2]; [7]): 1%; LPS % cell toxicity (primary rat microglia [3]; [8]): 0%; Quadrant (FIG. 5b) [4, 9]: Q4; inhibition at 10 µM [5, 10]: 1% |
| CCN(CC)CCOc1ccc2c(c1)C(=O)c1cc(OCCN(CC)CC)ccc1-2 [Tilorone] | -21% | 0% | 1% | Q1 | 60% |  |
| COC(=O)[C@@H]1[C@H]2C[C@H]3c4[nH]c5ccccc5c4CCN3C[C@@H]2CC[C@@H]1O [Yohimbine] |  |  |  |  |  | Fibrin % inhibition [1, 6]: 4%; Fibrin % cell toxicity (primary rat microglia [2]; [7]): 1%; LPS % cell toxicity (primary rat microglia [3]; [8]): 0%; Quadrant (FIG. 5b) [4, 9]: Q4; LPS % inhibition [5, 10]: −17% |
| N=C(N)/N=C(\N)N1CCOCC1 [Moroxydine Hydrochloride] | -22% | 1% | 0% | Q4 | 4% |  |
| C[C@](N)(Cc1ccc(O)c(O)c1)C(=O)O [L-alpha-methyl Dopa, Methyldopa] |  |  |  | Q4 |  | Fibrin % inhibition ([1]; primary microglia HTS, fibrin stimulation, activation = cell size >800 μm2): 4%; Fibrin % cell toxicity (primary rat microglia [2]; primary microglia HTS, fibrin stimulation, toxicity = cell size <150 μm2): 0%; LPS % cell toxicity (primary rat microglia [3]; primary microglia HTS, LPS stimulation, toxicity = cell size <150 μm2): 0%; LPS % inhibition ([5]; primary microglia HTS, LPS stimulation, activation = cell size >800 μm2): 15% |
| CC(C)CCCC(C)N (centres unmarked) [Octodrine] | 2% | 0% | 0% | Q4 | -2% |  |
| CC(=O)Oc1ccccc1C(=O)Nc1ncc([N+](=O)[O-])s1 [Nitazoxanide] | -16% | 1% | 0% | Q4 | 22% |  |
| CCc1nn(CCCN2CCN(c3cccc(Cl)c3)CC2)c(=O)n1CCOc1ccccc1 [Nefazodone] | -37% | 0% | 0% | Q4 | 3% |  |
| C[C@H](Cn1cnc2c(N)ncnc21)OCP(=O)(O)O [Tenofovir] |  |  |  |  |  | Fibrin % inhibition [1, 6]: −10%; Fibrin % cell toxicity (primary rat microglia [2]; [7]): 0%; LPS % cell toxicity (primary rat microglia [3]; [8]): 0%; Quadrant (FIG. 5b) [4, 9]: Q4; LPS % inhibition [5, 10]: 17% |
| O=C(O)c1cc(=O)c2ccccc2o1 [Chromocarb] |  |  |  |  |  | inhibition at 10 µM [1, 16]: -7%; Fibrin % cell toxicity (primary rat microglia [2]; [17]): 1%; LPS % cell toxicity (primary rat microglia [3]; [18]): 0%; Quadrant (FIG. 5b) ([4]; primary HTS, 10 μM): Q4; inhibition at 10 µM [5, 19]: 5% |
| O=[N+]([O-])C(Br)(CO)CO [Bronopol] | 43% | 2% | 61% | Q1 | 119% |  |
| C#C[C@]1(OC(C)=O)CC[C@H]2[C@@H]3CCC4=CC(=O)CC[C@@H]4[C@H]3CC[C@@]21C [Norethindrone Acetate] | -5% | 1% | 0% | Q4 | 18% |  |
| Cc1cc(O)cc(C)c1Cl [Chloroxylenol] |  |  |  |  |  | inhibition at 10 µM [1, 16]: -15%; Fibrin % cell toxicity (primary rat microglia [2]; [17]): 1%; LPS % cell toxicity (primary rat microglia [3]; [18]): 0%; Quadrant (FIG. 5b) ([4]; primary HTS, 10 μM): Q4; inhibition at 10 µM [5, 19]: 7% |
| CCN(CC)C(=O)c1cccnc1 [Nikethamide] | 12% | 0% | 0% | Q4 | -4% |  |
| Cc1cn([C@H]2C=C[C@@H](CO)O2)c(=O)[nH]c1=O [Stavudine] |  |  |  |  |  | inhibition at 10 µM [1, 6]: -17%; Fibrin % cell toxicity (primary rat microglia [2]; [7]): 1%; LPS % cell toxicity (primary rat microglia [3]; [8]): 0%; Quadrant (FIG. 5b) [4, 9]: Q4; inhibition at 10 µM [5, 10]: 19% |
| NC(=O)N[C@@H](CCC(=O)O)C(=O)O [Carglumic Acid] |  |  |  |  |  | inhibition at 10 µM [1, 16]: 1%; Fibrin % cell toxicity (primary rat microglia [2]; [17]): 1%; LPS % cell toxicity (primary rat microglia [3]; [18]): 0%; Quadrant (FIG. 5b) ([4]; primary HTS, 10 μM): Q4; inhibition at 10 µM [5, 19]: 6% |
